{"source": "paper PMC3419223", "about": "“Transient Receptor Potential Ankyrin 1 Channel Localized to Non-Neuronal Airway Cells Promotes Non-Neurogenic Inflammation” (PLoS ONE, 2012)", "key": {"TRPA1": {"molecular_target": "T1, TRPA1 (Homo sapiens, UniProt O75762)", "T1 construct": "cultured human airway cells, including fibroblasts, epithelial and smooth muscle cells express functional TRPA1 channels; endogenous in cells; host or cells: SAEC, NHLF, HBSMC (Lonza, primary); A549, IMR90 (ATCC)", "T1 sequence (O75762 whole entry)": "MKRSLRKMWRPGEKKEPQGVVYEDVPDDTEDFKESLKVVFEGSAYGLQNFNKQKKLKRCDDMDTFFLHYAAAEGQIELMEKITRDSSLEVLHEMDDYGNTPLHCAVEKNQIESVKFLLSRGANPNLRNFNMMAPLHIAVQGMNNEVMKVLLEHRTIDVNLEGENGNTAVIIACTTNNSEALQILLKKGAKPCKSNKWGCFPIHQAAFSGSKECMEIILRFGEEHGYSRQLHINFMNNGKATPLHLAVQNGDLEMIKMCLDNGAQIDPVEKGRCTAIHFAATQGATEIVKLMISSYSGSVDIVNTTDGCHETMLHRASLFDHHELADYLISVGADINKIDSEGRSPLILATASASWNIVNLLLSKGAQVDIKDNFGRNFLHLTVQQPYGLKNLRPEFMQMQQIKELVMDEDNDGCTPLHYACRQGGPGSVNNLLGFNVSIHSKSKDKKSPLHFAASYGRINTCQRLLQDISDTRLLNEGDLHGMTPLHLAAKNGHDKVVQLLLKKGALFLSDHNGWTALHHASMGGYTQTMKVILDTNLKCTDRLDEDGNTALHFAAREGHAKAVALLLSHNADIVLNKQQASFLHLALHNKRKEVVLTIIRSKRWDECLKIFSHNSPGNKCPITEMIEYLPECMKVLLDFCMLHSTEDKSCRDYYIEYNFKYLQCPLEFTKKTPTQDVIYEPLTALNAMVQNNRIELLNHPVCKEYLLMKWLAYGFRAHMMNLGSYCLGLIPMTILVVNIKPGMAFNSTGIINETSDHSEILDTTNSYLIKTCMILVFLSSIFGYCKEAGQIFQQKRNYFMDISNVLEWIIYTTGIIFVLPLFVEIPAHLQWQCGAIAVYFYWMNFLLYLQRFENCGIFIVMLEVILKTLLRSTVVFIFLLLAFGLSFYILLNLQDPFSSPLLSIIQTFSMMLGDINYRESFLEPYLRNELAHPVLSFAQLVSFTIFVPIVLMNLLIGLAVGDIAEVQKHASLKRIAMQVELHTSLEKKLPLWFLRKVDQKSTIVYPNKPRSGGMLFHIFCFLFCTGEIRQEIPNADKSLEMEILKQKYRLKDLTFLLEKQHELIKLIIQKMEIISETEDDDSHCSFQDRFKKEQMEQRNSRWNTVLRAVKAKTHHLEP", "test": "Calcium imaging (Fura-2) of TRPA1 agonist responses in human airway/lung cells", "format": "cell-based", "conditions": "antagonist 10 µM", "protocol": "Human small airway epithelial cells (SAEC), normal human lung fibroblasts (NHLF) and human bronchial smooth muscle cells (HBSMC) were purchased from Lonza. Human alveolar type II epithelium-like adherent cell line (A549) and human lung embryonic fibroblast (IMR90) were purchased from American Type Culture Collection (Manassas, VA). SAEC and NHLF were cultured respectively in SAGM and FBM medium (Lonza) according to the manufacturer's instructions. IMR90 and HBSMC were cultured in DMEM supplemented with 10% FBS, 2 mM glutamine, 100 U penicillin and 100 µg/ml streptomycin (Sigma-Aldrich), and A549 were cultured in RPMI supplemented with 10% FBS, 2 mM glutamine, 100 U penicillin, 100 µg/ml streptomycin and 1 mM HEPES (Sigma-Aldrich). All cells were cultured in an atmosphere of 95% air and 5% CO2 at 37°C.\nCSE was generated as previously reported. Briefly, aqueous CSE was obtained from the combustion of four cigarettes (Marlboro Red, 12 mg of tar, 0.9 mg of nicotine each) bubbled through 50 ml of buffer and subsequently filtered through a 0.2-µm pore filter (Millipore). To ensure reproducibility among different CSE batches, the absorbance (optical density; OD) measured at 320 nm was used as a measure of the “strength” of the extract. Dilutions were made with buffer to obtain the desired absorbance. The CSE was freshly prepared on the day of the experiment and used immediately after preparation.\nFor calcium fluorescence measurements, cells were incubated with 5 µM Fura-2AM ester (Alexis Biochemicals) for 40 minutes at 37°C. Intracellular calcium levels were measured and recorded with a dynamic image analysis system (Laboratory Automation 2.0; RC Software). Fluorescence was measured during excitation at 340 and 380 nm, and after correction for the individual background fluorescence signals, the ratio of the fluorescence at both excitation wavelengths (Ratio340/380) was monitored. Experiments were performed using buffer solution containing (in mM): 150 NaCl, 6 KCl, 1 MgCl2, 1.5 CaCl2, 10 glucose, 10 HEPES at pH 7.4. Cells were stimulated with cinnamaldehyde (0.1–3000 µM), acrolein (0.1–3000 µM), CSE (0.001–0.5 OD), capsaicin (1 µM) and the activating peptide (SLIGKV-NH2) of the human PAR-2 receptor (hPAR-2 AP; 100 µM), or their respective vehicles (0.3% DMSO,aqueous buffer or 1% ethanol). HC-030031 and AP18 vehicles (used in all the in vitro experiments) were 3% DMSO and 1% DMSO, respectively. Results are expressed as the increase of Ratio340/380 over the baseline normalized to the maximum effect induced by ionomycin (5 µM) added at the end of the experiment."}, "[1]": {"test_system": "C57BL/6 mouse trachea and bronchi", "test": "Plasma protein extravasation (Evans blue dye) after intratracheal instillation", "format": "in vivo", "conditions": "L-733,060 2 µmol/kg i.v.; CPZ 30 mg/kg i.p.; HC 300 mg/kg i.g.; C57BL/6 mice", "protocol": "To defunctionalize/desensitize TRPV1 expressing primary sensory neurons, resiniferatoxin (RTX) was administered to C57BL/6 mice, as previously described, [40]. Briefly, mice were treated subcutaneously (s.c.) with a single injection of RTX (50 µg/kg) or its vehicle (10% ethanol and 10% tween 80 in isotonic saline) into the scruff of the neck under a light ether anesthesia to avoid unnecessary pain. Experiments were carried out 7 days after RTX treatment when responses to both TRPV1 and TRPA1 agonists in the treated mice were abolished, [40].\nAnesthetized (sodium pentobarbital, 50 mg/kg i.p.) C57BL/6 mice received Evans blue dye (30 mg/kg i.v.), 1 min before intratracheal (i.t) instillation (30 µl) of acrolein (5 mM), capsaicin (100 µM), SP (25 nM), CSE (1 OD) or their vehicles (isotonic saline, 1% ethanol in isotonic saline and isotonic saline). […] The tachykinin NK1 receptor antagonist, L-733,060 (2 µmol/kg i.v.; Tocris) or its vehicle were administered 15 min before the stimulus. The TRPV1 selective antagonist, capsazepine, (30 mg/kg i.p.) or its vehicle (2.5% DMSO in isotonic saline) and intragastric (i.g.) TRPA1 selective antagonist, HC-030031 (300 mg/kg i.g.) or its vehicle were administered 30 and 60 min before the stimulus, respectively. In another set of experiments ACR (5 mM, i.t.), or its vehicle, has been administered in C57BL/6 mice desensitized to RTX (50 µg/kg; s.c.). Animals were euthanized 15 min after treatment and transcardially perfused with 0.9% isotonic saline solution. The extravasated dye was extracted from mouse trachea and bronchi by overnight incubation in formamide and assayed by spectrophotometry at 620 nm, as reported previously."}}, "data": [{"molecule": "CC(C)c1ccc(NC(=O)Cn2cnc3c2c(=O)n(C)c(=O)n3C)cc1", "note": "[HC-030031]", "values": [{"measurement": "effect of antagonist on calcium response evoked by CNM, ACR or CSE", "setting": "TRPA1; A549 and IMR90", "value": "abolished"}, {"measurement": "effect of antagonist on calcium responses to CNM, ACR and CSE", "setting": "TRPA1; SAEC, NHLF, HBSMC", "value": "prevented"}, {"measurement": "effect on acrolein (5 mM, i.t.)- and CSE (1 OD, i.t.)-evoked increase in PPE", "setting": "[1]", "value": "prevent"}]}]}
